System: BV-2 microglia
Assay: Real-time PCR of C1q, IL-6 and TNFα in AβO-activated BV-2 microglia
Assay type: cell-based
Design: key to mRNA levels of C1q / mRNA levels of IL-6 / mRNA levels of TNFα: relative expression normalized to GAPDH by 2^-ΔΔCt; PBS = 1
Experimental: Synthetic Abeta1-42 oligomers were generated as previously described (PMID: 27834631). Hydroxyfluroisopropanol (HFIP)-treated synthethic Abeta1-42 peptides (rPeptide, Bogart, GA, USA) were dissolved in dimethylsulfoxide (DMSO) and further diluted in phosphate-buffered saline (PBS) to obtain a 250 μM stock solution. The stock solution was incubated at 4° C. for at least 24 hours and stored at −80° C. until use. Before use, the solution was centrifuged at 12,000 g for 10 minutes and the supernatant was used as an oligomeric Aβ.
BV-2 microglial cells were cultured in DMEM media. 10^6 of BV-2 microglia in 6 well plate were treated with 2.5 μM of Abeta for 4 hrs. Total RNA from cultured cells was extracted with a RNA isolation kit (Qiagen, Valencia, CA, USA) following manufacturer's instructions. RNA concentration was measured spectrophotometrically using a NanoDrop 2000 (Thermo scientific). Subsequently, 2 μg of total RNA was reverse transcribed to cDNA using the High-Capacity cDNA Reverse Transcription System (Life Technologies, Grand Island, NY, USA). Comparative qPCR was performed using fast SYBR Green Master Mix (Life Technologies) and steponeplus real-time pcr system (Applied Biosystems, Foster City, CA, USA). The expression levels of target genes were normalized to the expression of GAPDH and calculated based on the comparative cycle threshold Ct method^−ΔΔ(2) Ct. (n=3)
To examine the effect of RIPK2 inhibition, 10^6 of BV-2 microglia in 6 well plate were preincubated with DMSO, GSK583 (1 μM, Medchemexpress), OD361 (1 μM, Calbiochem), or Sorafenib (1 μM) for one hour. For mRNA analysis, 5 μM of AβO was treated additional for 4 hours.

[1] = inhibitor 1 μM pretreatment, AβO 5 μM, in words

Which results are given for `CC(C)(C)S(=O)(=O)c1ccc2nccc(Nc3n[nH]c4ccc(F)cc34)c2c1` [GSK583, 6-(tert-butylsulfonyl)-N-(5-fluoro-1H-indazol-3-yl) quinolin-4-amine]?
mRNA levels of IL-6 (BV-2 microglia preincubated 1 h with inhibitor 1 μM, then AβO 5 μM 4 h, PBS = 1 ± 0.08, Abeta alone 12.53 ± 0.59, ±SD): 4.89 ± 0.23; mRNA levels of C1q (BV-2 microglia preincubated 1 h with inhibitor 1 μM, then AβO 5 μM 4 h, PBS = 1 ± 0.13, Abeta alone 3.7 ± 0.06, ±SD): 0.87 ± 0.14; mRNA levels of TNFα (BV-2 microglia preincubated 1 h with inhibitor 1 μM, then AβO 5 μM 4 h, PBS = 1 ± 0.16, Abeta alone 16.19 ± 3.21, ±SD): 3.23 ± 0.27; microglial activation [1]: blocked microglial activation; release of multiple inflammatory mediators including C1q, IL-6 and TNFα [1]: significantly reduced

— patent US20240398824A1, “Inhibition Of Rip Kinases For Treating Neurodegenerative Disorders” (The Johns Hopkins University, priority 2018, published 2024)
